Tests used:
ECHCG [1] = experiment: Post-emergence herbicidal action against ECHCG; assay type: in vivo, Echinochloa crus-galli
Method in brief: (§1)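 Foliar application at one-leaf stage of formulated test compounds, aqueous spray at 600–800 l/ha with 0.2% wetting agent. Greenhouse, optimal conditions, ~3 weeks; damage scored visually in % relative to untreated plants.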

ALOMY [2] = experiment: Pre-emergence herbicidal action against ALOMY; assay type: in vivo, Alopecurus myosuroides; details: 80 g/ha, pre-emergence, scored visually after 3 weeks vs untreated controls (100% = plants have died, 0% = like control plants)
Method in brief: (§2)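 Greenhouse pots of sandy loam held seeds covered with soil, onto which the compound was applied before emergence. An aqueous suspension or emulsion of WP or EC was used at 600 to 800 l/ha with 0.2% wetting agent. Percent damage was judged visually at 3 weeks.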

STEME [3] = experiment: Pre-emergence herbicidal action against STEME; assay type: in vivo, Stellaria media
Method in brief: as §2

MATIN [4] = experiment: Pre-emergence herbicidal action against MATIN; assay type: in vivo, Matricaria inodora
Method in brief: as §2

PHBPU [5] = experiment: Post-emergence herbicidal action against PHBPU; assay type: in vivo, Pharbitis purpurea
Method in brief: as §1

ABUTH [6] = experiment: Pre-emergence herbicidal action against ABUTH; assay type: in vivo, Abutilon theophrasti
Method in brief: as §2

LOLRI = experiment: Pre-emergence herbicidal action against LOLRI; assay type: in vivo, Lolium rigidum; details: 80 g/ha
Method in brief: as §2

AVEFA [7] = experiment: Pre-emergence herbicidal action against AVEFA; assay type: in vivo, Avena fatua; details: 80 g/ha, pre-emergence
Method in brief: as §2

DIGSA [8] = experiment: Pre-emergence herbicidal action against DIGSA; assay type: in vivo, Digitaria sanguinalis
Method in brief: as §2

HORMU [9] = experiment: Pre-emergence herbicidal action against HORMU; assay type: in vivo, Hordeum murinum; details: 80 g/ha, pre-emergence
Method in brief: as §2

SETVI [10] = experiment: Pre-emergence herbicidal action against SETVI; assay type: in vivo, Setaria viridis; details: dosage 80 g/ha
Method in brief: as §2

ECHCG [11] = experiment: Pre-emergence herbicidal action against ECHCG; assay type: in vivo, Echinochloa crus-galli
Method in brief: as §2

STEME [12] = experiment: Post-emergence herbicidal action against STEME; assay type: in vivo, Stellaria media
Method in brief: as §1

ALOMY [13] = experiment: Post-emergence herbicidal action against ALOMY; assay type: in vivo, Alopecurus myosuroides; details: dosage 20 g/ha, visual assessment about 3 weeks after treatment vs untreated controls
Method in brief: as §1

DIGSA [14] = experiment: Post-emergence herbicidal action against DIGSA; assay type: in vivo, Digitaria sanguinalis
Method in brief: as §1

AMARE [15] = experiment: Post-emergence herbicidal action against AMARE; assay type: in vivo, Amaranthus retroflexus; details: 20 g/ha, visual assessment about 3 weeks after treatment, 100% = plants have died, 0% = like control plants
Method in brief: as §1

PHBPU [16] = experiment: Pre-emergence herbicidal action against PHBPU; assay type: in vivo, Pharbitis purpurea; details: dosage 80 g/ha
Method in brief: as §2

ABUTH [17] = experiment: Post-emergence herbicidal action against ABUTH; assay type: in vivo, Abutilon theophrasti; details: visual assessment about 3 weeks after treatment vs untreated controls
Method in brief: as §1

SETVI [18] = experiment: Post-emergence herbicidal action against SETVI; assay type: in vivo, Setaria viridis
Method in brief: as §1

MATIN [19] = experiment: Post-emergence herbicidal action against MATIN; assay type: in vivo, Matricaria inodora
Method in brief: as §1

AVEFA [20] = experiment: Post-emergence herbicidal action against AVEFA; assay type: in vivo, Avena fatua; details: visual assessment about 3 weeks after treatment, 100% = plants have died, 0% = like control plants
Method in brief: as §1

VIOTR [21] = experiment: Pre-emergence herbicidal action against VIOTR; assay type: in vivo, Viola tricolor
Method in brief: as §2

VERPE = experiment: Post-emergence herbicidal action against VERPE; assay type: in vivo, Veronica persica; details: 20 g/ha
Method in brief: as §1

POLCO = experiment: Pre-emergence herbicidal action against POLCO; assay type: in vivo, Polygonum convolvulus; details: dosage 80 g/ha
Method in brief: as §2

HORMU [22] = experiment: Post-emergence herbicidal action against HORMU; assay type: in vivo, Hordeum murinum; details: dosage 20 g/ha
Method in brief: as §1

AMARE [23] = experiment: Pre-emergence herbicidal action against AMARE; assay type: in vivo, Amaranthus retroflexus
Method in brief: as §2

VIOTR [24] = experiment: Post-emergence herbicidal action against VIOTR; assay type: in vivo, Viola tricolor
Method in brief: as §1

[25] = 80 g/ha, scored visually after 3 weeks vs untreated controls (100% = plants have died, 0% = like control plants)

Which “Post-emergence action against ECHCG in %” value (ECHCG [1]; dosage 5 g/ha) does the source give for `CCNC(=O)c1c(C(F)(F)F)ccc(C(=O)Nc2nnco2)c1Cl` [Example 5-117] here?
Its value is 80%.

What about the “Post-emergence action against ECHCG in %” value (ECHCG [1]; dosage 20 g/ha) of the same compound?
Its value is 80%.

And the “Pre-emergence action against ALOMY (herbicidal activity)” value (ALOMY [2])?
The value was 90%.

What about the “Pre-emergence action against STEME in %” value (STEME [3]; dosage 20 g/ha) of the same compound?
Its value is 90%.

What about the “Pre-emergence action against STEME in %” value (STEME [3]; dosage 80 g/ha) of the same compound?
Its value is 90%.

And the “Pre-emergence action against MATIN in %” value (MATIN [4]; dosage 20 g/ha)?
Its value is 90%.

And the “Pre-emergence action against MATIN in %” value (MATIN [4]; dosage 80 g/ha)?
Its value is 100%.

And the “Post-emergence action against PHBPU in %” value (PHBPU [5]; dosage 5 g/ha)?
The value was 80%.

What about the “Post-emergence action against PHBPU in %” value (PHBPU [5]; dosage 20 g/ha) of the same compound?
The value was 90%.

And the “Pre-emergence action against ABUTH (herbicidal activity)” value (ABUTH [6]; [25])?
Its value is 100%.

And the “Pre-emergence action against ABUTH (herbicidal activity in percent)” value (ABUTH [6]; dosage 20 g/ha, scored visually after 3 weeks vs untreated controls, 100% = plants have died, 0% = like control plants)?
The value was 100%.

And the “Pre-emergence action against LOLRI in %” value (LOLRI)?
Its value is 80%.

What about the “Pre-emergence action against AVEFA in %” value (AVEFA [7]) of the same compound?
The value was 90%.

What about the “Pre-emergence action against DIGSA in %” value (DIGSA [8]; dosage 20 g/ha) of the same compound?
The value was 100%.

And the “Pre-emergence action against DIGSA in %” value (DIGSA [8]; dosage 80 g/ha)?
Its value is 100%.

And the “Pre-emergence action against HORMU in %” value (HORMU [9])?
The value was 80%.

And the “Pre-emergence action against SETVI in %” value (SETVI [10])?
Its value is 90%.

What about the “Pre-emergence action against ECHCG in %” value (ECHCG [11]; 20 g/ha) of the same compound?
The value was 80%.

What about the “Pre-emergence action against ECHCG in %” value (ECHCG [11]; 80 g/ha) of the same compound?
Its value is 100%.

And the “Post-emergence action against STEME in %” value (STEME [12]; 20 g/ha)?
The value was 100%.

And the “Post-emergence action against STEME in %” value (STEME [12]; dosage 5 g/ha)?
The value was 100%.

And the “Post-emergence action against ALOMY in %” value (ALOMY [13])?
Its value is 80%.

And the “Post-emergence action against DIGSA in %” value (DIGSA [14]; 5 g/ha)?
The value was 90%.

And the “Post-emergence action against DIGSA” value (DIGSA [14]; 20 g/ha)?
The value was 90%.

And the “Post-emergence action at 20 g/ha against AMARE in %” value (AMARE [15])?
The value was 100%.

And the “Pre-emergence action against PHBPU in %” value (PHBPU [16])?
Its value is 100%.

What about the “Post-emergence action against ABUTH in %” value (ABUTH [17]; dosage 5 g/ha) of the same compound?
The value was 80%.

What about the “Post-emergence action against ABUTH in %” value (ABUTH [17]; dosage 20 g/ha) of the same compound?
Its value is 90%.

What about the “Post-emergence action against SETVI in %” value (SETVI [18]; dosage 5 g/ha) of the same compound?
Its value is 100%.

What about the “Post-emergence action against SETVI in %” value (SETVI [18]; dosage 20 g/ha) of the same compound?
Its value is 100%.

And the “Post-emergence action against MATIN in %” value (MATIN [19]; dosage 5 g/ha)?
Its value is 80%.

And the “Post-emergence action against MATIN in %” value (MATIN [19]; dosage 20 g/ha)?
The value was 90%.

What about the “Post-emergence action at 5 g/ha against AVEFA in %” value (AVEFA [20]; 5 g/ha) of the same compound?
Its value is 80%.

What about the “Post-emergence action at 20 g/ha against AVEFA in %” value (AVEFA [20]; 20 g/ha) of the same compound?
Its value is 90%.

And the “Pre-emergence action against VIOTR in %” value (VIOTR [21]; dosage 20 g/ha)?
Its value is 100%.

And the “Pre-emergence action against VIOTR in %” value (VIOTR [21]; dosage 80 g/ha)?
The value was 100%.

And the “Post-emergence action against VERPE in %” value (VERPE)?
The value was 80%.

And the “Pre-emergence action against POLCO in %” value (POLCO)?
Its value is 80%.

What about the “Post-emergence action against HORMU in %” value (HORMU [22]) of the same compound?
The value was 80%.

And the “Pre-emergence action against AMARE in %” value (AMARE [23]; 20 g/ha, scored visually after 3 weeks vs untreated controls, 100% = plants have died, 0% = like control plants)?
Its value is 90%.

And the “Pre-emergence action against AMARE in %” value (AMARE [23]; [25])?
Its value is 90%.

And the “Post-emergence action against VIOTR in %” value (VIOTR [24]; 5 g/ha)?
Its value is 90%.

And the “Post-emergence action against VIOTR in %” value (VIOTR [24]; 20 g/ha)?
Its value is 100%.

Source: US12655116B2, “Substituted isophthalic acid diamides” (Bayer Aktiengesellschaft, priority 2020, dated 2026)
